Data as given in paper PMC7613515, “Reading and erasing of the phosphonium analogue of trimethyllysine by epigenetic proteins” (Communications Chemistry, 2022).

Target: T1, KDM4EJmjC (M1–Q337) (Homo sapiens, UniProt B2RXH2)
T1 construct: We chose human KDM4EJmjC (M1–Q337); made in house
T1 sequence (B2RXH2 1-337): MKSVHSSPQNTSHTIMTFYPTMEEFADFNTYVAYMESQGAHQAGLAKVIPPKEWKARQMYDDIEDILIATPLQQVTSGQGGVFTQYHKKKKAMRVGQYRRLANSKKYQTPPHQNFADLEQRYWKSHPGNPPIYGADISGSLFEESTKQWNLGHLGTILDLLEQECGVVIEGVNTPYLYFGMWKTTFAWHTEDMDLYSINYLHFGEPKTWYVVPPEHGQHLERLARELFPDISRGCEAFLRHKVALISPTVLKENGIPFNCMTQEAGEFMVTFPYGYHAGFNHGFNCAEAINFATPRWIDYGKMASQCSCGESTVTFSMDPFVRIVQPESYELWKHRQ
Assay: MALDI-TOF demethylation assay, KDM4EJmjC
Format: biochemical
Protocol: Reactions were monitored using MALDI-TOF mass spectrometry (Fig. 5b–d).
A Bruker Daltonics MALDI-TOF/TOF AutoflexSpeed machine and Bruker MTP 384 target plates (polished steel BC, Part: 8280781) were used. The machine was controlled using Flex control (v. 3.4 build 135.10) and Compass for flex series (v. 1.4) software. Measurements were in the positive ion mode with the reflectron mode enabled. Incubations employed ProxiPlate-384™ (Perkin Elmer) plates into which was pipetted a solution of [H3_1-15K9me3 (10.0 µM), (+)-sodium L-ascorbate (1.0 mM), (NH4)2Fe(II)(SO4)2 (100 µM), di-sodium 2-oxoglutarate (200 µM) in buffer (HEPES (50 mM)) in MilliQ (pH 7.5)] (5.0 µL) using ClipTip™ (Thermo Scientific™) pipette tips and E1-ClipTip™ (Thermo Scientific™). The enzyme solution [KDM4EJmjC (1.0 µM) in HEPES (50 mM)] (5.0 µL) was added to initiate reaction at 37 °C. Reactions were quenched with formic acid in water (2%, 5.0 µL). Samples were then spotted onto a MALDI-TOF target plate (1.0 µL), MALDI matrix [sat. sol. α-cyano-4-hydroxy-cinnamic acid (10 mg·mL^−1) in {trifluoro acetic acid, acetonitrile and MilliQ (0.1:50:50)}] (1.0 µL) was added, mixed, and dried in air. Samples were then analysed by MALDI-TOF. Specific experiments were supplemented with catalase from bovine liver (C3155-50MG, Merck) (5.0 µM), bovine albumin serum (BSA, Perkin Elmer, CR84-100, DTPA purified 7.5%) (5.0 µM), or Tris(carboxyethyl)phosphine hydrochloride salt (TCEP, M02624, Fluorochem) (500 µM).

ARTKQTAR(KPme3)STGGKA [H3KP9me3, histone H3 residues 1–15 with trimethylphosphonium lysine analogue at position 9]
demethylation in competition assay (H3K9me3 (5.0 µM) and H3KP9me3 (5.0 µM) in the same vessel, KDM4EJmjC 0.5 µM): no evidence that H3KP9me3 was converted to H3KP9me2 or H3KP9me2O | relative substrate quality / rate (H3K9me3 versus H3KP9me3): demethylation rate is significantly slower for H3KP9me3 than for H3K9me3 | demethylation in omission controls (H3KP9me3: without KDM4EJmjC, Asc, Fe(II) or 2OG, H3K9me3: without Asc and Fe(II), 1 hr): little or no H3KP9me2 or H3KP9me2O formation | demethylation (KDM4EJmjC 0.5 µM (H3KP9me3 also at 5.0 µM enzyme), peptide 5.0 or 6.0 µM, Asc 500 µM, Fe(II) 50 µM, 2OG 100 µM): only undergo a single demethylation (−14 Da) to give H3KP9me2 | effect of catalase with or without Asc or BSA (KDM4EJmjC 0.5 µM, catalase 5.0 µM, BSA 5.0 µM): did not substantially alter the amounts of H3KP9me2 or H3KP9me2O | yield with TCEP rather than Asc (TCEP as a reducing agent, KDM4EJmjC 0.5 µM): slightly increased yields of H3KP9me2 and H3KP9me2O | product formation (stoichiometric: KDM4EJmjC 5.0 µM, peptide 5.0 µM): faster H3KP9me2 and H3KP9me2O product formation, but no evidence for H3KP9me1 or H3KP9 formation
